Like-named read-outs stand apart in the source and are kept apart here.
Experiments:
[1] = system: natural population of lowland brush; experiment: Woody brush control with Metsulfuron Methyl; details: MSM 1/5 oz/gal, no adjuvant; scale 1-5
[2] = system: Didymella fungus that is resistant to azoxystrobin; experiment: Petri dish radial growth bioassay, agar impregnated with Quadris and/or benzyl alcohol; type: cell-based
[3] = system: black rust (Puccinia graminis tritici); type: in vivo; details: wheat, tebuconazole 2 fl oz/acre, no adjuvant, 21 days after treatment
[4] = Quadris 0 oz/ac, Benzyl Alcohol 6 oz/ac

COC(=O)c1ccccc1S(=O)(=O)NC(=O)Nc1nc(C)nc(OC)n1 [MSM Alone] was tested, and the “Observation at 28 DAT” value [1] was 2.0.

In the case of OCc1ccccc1 [Benzyl Alcohol only, benzyl alcohol], the “Radial growth, 24 Hours” value [2, 4] is reported as 4.83, the “Radial growth, 48 Hours” value [2, 4] is reported as 8.42 and the “Radial growth, 72 Hours” value [2, 4] is reported as 8.7. The “Radial growth, 96 Hours” value [2, 4] was 13.98, the “Radial growth, 120 Hours” value [2, 4] was 18.72 and the “Radial growth, 144 Hours” value [2, 4] was 25.05. For the same compound, the “Reduction in fungal growth (observation)” value ([2]; benzyl alcohol alone, petri dish) was “no reduction in fungal growth”.

In the case of CC(C)(C)C(O)(CCc1ccc(Cl)cc1)Cn1cncn1 (stereo not shown) [Teb only, tebuconazole], the “Disease Severity Rating” value ([3]; mix water 35° F.) is reported as 51.3 and the “Disease Severity Rating” value ([3]; mix water 70° F.) is reported as 47.
